Experiments:
Type in all cases: biochemical
CYP1A1 [1] = target: T1, CYP1A1 (Homo sapiens, UniProt P04798); experiment: P450-Glo CYP1A1 luminescence assay, positive control at […]
T1 sequence (P04798 1-512): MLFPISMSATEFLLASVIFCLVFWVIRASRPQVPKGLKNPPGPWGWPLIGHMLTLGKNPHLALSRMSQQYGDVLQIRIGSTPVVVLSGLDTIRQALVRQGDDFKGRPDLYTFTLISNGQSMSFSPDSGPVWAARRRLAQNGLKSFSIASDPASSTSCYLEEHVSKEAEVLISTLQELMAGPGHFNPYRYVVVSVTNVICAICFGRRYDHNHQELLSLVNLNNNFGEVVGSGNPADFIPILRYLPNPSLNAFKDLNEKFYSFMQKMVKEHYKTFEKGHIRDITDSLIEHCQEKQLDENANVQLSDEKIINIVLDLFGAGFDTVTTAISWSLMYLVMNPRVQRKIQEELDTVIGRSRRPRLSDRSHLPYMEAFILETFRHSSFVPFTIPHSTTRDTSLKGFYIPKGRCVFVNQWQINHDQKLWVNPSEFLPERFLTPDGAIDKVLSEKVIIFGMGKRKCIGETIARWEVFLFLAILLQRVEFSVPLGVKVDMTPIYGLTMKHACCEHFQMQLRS

CYP1A2 = target: T2, CYP1A2 (Homo sapiens, UniProt P05177); experiment: Vivid CYP450 Screening kit fluorescence assay
T2 sequence (P05177 2-516): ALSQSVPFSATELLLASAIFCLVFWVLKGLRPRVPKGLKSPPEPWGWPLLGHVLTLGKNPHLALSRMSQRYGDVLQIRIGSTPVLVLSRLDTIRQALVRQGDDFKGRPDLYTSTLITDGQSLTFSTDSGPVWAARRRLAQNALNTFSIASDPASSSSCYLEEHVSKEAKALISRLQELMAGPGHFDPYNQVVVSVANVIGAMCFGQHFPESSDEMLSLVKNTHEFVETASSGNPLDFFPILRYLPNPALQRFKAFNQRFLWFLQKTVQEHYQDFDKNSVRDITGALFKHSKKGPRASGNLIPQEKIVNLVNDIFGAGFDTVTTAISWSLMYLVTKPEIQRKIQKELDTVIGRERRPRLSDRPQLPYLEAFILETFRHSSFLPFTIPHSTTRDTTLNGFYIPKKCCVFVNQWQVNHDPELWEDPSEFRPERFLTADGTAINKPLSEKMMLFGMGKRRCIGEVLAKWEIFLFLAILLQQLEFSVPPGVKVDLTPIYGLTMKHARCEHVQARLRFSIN

CYP1A1 [2] = target: T1, CYP1A1; experiment: P450-Glo CYP1A1 luminescence assay, recombinant enzyme in microsomes
CYP3A4 = CYP3A4 (Homo sapiens, UniProt P08684); experiment: Vivid CYP450 Screening kit fluorescence assay
CYP3A4, sequence (P08684 2-503): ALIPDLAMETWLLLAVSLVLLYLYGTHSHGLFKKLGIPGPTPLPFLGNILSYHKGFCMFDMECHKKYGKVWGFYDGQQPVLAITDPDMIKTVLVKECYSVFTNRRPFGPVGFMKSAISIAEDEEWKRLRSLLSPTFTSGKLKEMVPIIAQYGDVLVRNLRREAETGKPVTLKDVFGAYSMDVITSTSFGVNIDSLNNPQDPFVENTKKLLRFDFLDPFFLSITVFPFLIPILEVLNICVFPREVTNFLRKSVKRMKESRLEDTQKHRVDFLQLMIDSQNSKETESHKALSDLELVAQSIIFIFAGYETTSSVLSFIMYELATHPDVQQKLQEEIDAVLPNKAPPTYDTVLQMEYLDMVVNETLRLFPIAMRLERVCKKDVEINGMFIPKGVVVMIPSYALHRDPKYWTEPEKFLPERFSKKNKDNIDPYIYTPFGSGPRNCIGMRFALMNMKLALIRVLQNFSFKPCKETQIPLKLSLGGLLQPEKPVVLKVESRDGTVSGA

IC50 (CYP1A2)	IC50 (CYP1A1 [2])	IC50 (CYP3A4)	Compound	P450-Glo CYP1A1 luminescence assay, positive control at 1 μM (CYP1A1 [1])
			COc1ccc2[nH]c([S+]([O-])Cc3ncc(C)c(OC)c3C)nc2c1 (stereo not shown) [OMP, omeprazole]	significantly inhibited CYP1A1 activity, although the inhibition was weaker than that of omeprazole, a known CYP1A1 inhibitor
49 µM	12.5 µM	11 µM	CC(=O)O[C@H]1CC(C)(C)C(=C=C/C(C)=C/C=C/C(C)=C/C=C/C=C(C)/C=C/C=C(\C)C(=O)C[C@@]23O[C@]2(C)C[C@@H](O)CC3(C)C)[C@](C)(O)C1 [Fx, fucoxanthin]	

From article PMC3789093 (Oncology Letters, 2013)
